# Patent US20130023504A1, “Modulation of Prostaglandin/Cyclooxygenase Metabolic Pathways” (HUNTER-FLEMING LIMITED, priority 2006, published 2013)
# Tested on: rat sensory neurones
# Assay: Neurite growth of sensory neurones in primary culture (anti β-Tubulin, In Cell Analyzer)
# Format: cell-based
# Experimental: Rat sensory neurones were prepared according to the method described by Hall et al. 1997 (Hall A K, Ai X, Hickman G E, MacPhedran S E, Nduaguba C O, Robertson C P. The generation of neuronal heterogeneity in a rat sensory ganglion. J. Neurosci. 1997 Apr. 15; 17(8):2775-84). Briefly, female rats (15 days gestation) were killed by cervical dislocation (Rats Wistar; Janvier, Le Genest-St-Isle, France) and the foetuses removed from the uterus. Their spinal cords with the dorsal root ganglia (DRG) were removed and placed in ice-cold medium of Leibovitz (L15, Fisher 11415-049) containing Penicillin 50 Ul/ml-Streptomycin 50 pg/ml (PS, 1%) and bovine serum albuminutes (BSA 1%, Sigma A6003). The DRG were recovered and dissociated by trypsinisation for 20 minutes at 37° C. (trypsin EDTA 10×, 10%, Fisher 15400054) diluted in PBS without calcium and magnesium (Fisher 2007-03). The reaction was stopped by addition of Dulbecco modified Eagle medium (DMEM, Fisher 21969-035) containing DNase I grade II (0.1 mg/ml Roche diagnostic 104159) and foetal bovine serum (FBS 10%, Fisher 10270-098). The cell suspension was triturated with a 10 ml pipette and centrifuged at 350×g for 10 minutes at room temperature. The pellet of dissociated cells was then resuspended in defined culture medium.
# Viable cells were counted in a Neubauer cytometer using the trypan blue exclusion test (Sigma) and seeded at a density of 25 000 cells/well in 96 well-plates (Nunc). Wells were pre-coated with poly-L-lysine (10 μg/ml, Sigma P2636) in ultra pure sterile water (Merck Eurolab 60759.01).
# Cells were allowed to adhere for 2 hours and maintained in a humidified incubator at 37° C. in 5% CO2/95% air atmosphere.
# The culture medium was changed into a defined culture medium after a 12 hours incubation period following the conditions described below:
# NGF 50 ng/ml and 10 ng/ml (in 0.1% DMSO)
# After 6 hours, 12 hours and 24 hours of incubation with 7β-OH EPIA, cells were fixed for 5 minutes in an ethanol/acetic acid solution (95%/5%) at −20° C. and rinsed 3 times in PBS.
# Motor neurones and sensory neurones were labelled by monoclonal anti β-Tubulin antibody (Sigma T8660) diluted at 1:400 in incubation solution (PBS with 5% of FCS and 0.1% of saponin, Sigma S-7900). This antibody specifically labels neurone cell bodies and neurites.
# After 2 hours of incubation, the cells were washed in PBS and incubated with Alexa Fluor 488 goat anti mouse IgG (Molecular Probes A11001) diluted at 1:300 in incubation solution to reveal the 8-Tubulin III antibodies.
# Analysis of the total length of neurones labelled with anti β-Tubulin antibodies (neurones) were carried out using In Cell Analyzer 1000 3.2.Workstation software.
# The results were expressed in percentage compared to the vehicle. Comparison of groups was carried out using the unpaired T test.
smiles,measurement,setting,value
"CC12CCC3C(C1CCC2=O)[C@@H](O)C[C@H]1C[C@@H](O)CCC31C (stereo partly drawn) [Compound 7β-OH-EPIA, 7β-hydroxy-EPIAndrosterone]","Neurites length per field, % Vehicle","10^−4 M, 6 hours",101%
same,"Neurites length per field, Mean","10^−4 M, 6 hours",103.2 μm
same,"Neurites length per field, % Vehicle","10^−4 M, 12 hours",97%
same,"Neurites length per field, Mean","10^−4 M, 12 hours",290.3 μm
same,"Neurites length per field, % Vehicle","10^−4 M, 24 hours",104%
same,"Neurites length per field, Mean","10^−4 M, 24 hours",228.6 μm
same,"Neurites length per field, % Vehicle","10^−5 M, 6 hours",112%
same,"Neurites length per field, Mean","10^−5 M, 6 hours",114.8 μm
same,"Neurites length per field, % Vehicle","10^−5 M, 12 hours",108%
same,"Neurites length per field, Mean","10^−5 M, 12 hours",321.0 μm
same,"Neurites length per field, % Vehicle","10^−5 M, 24 hours",111%
same,"Neurites length per field, Mean","10^−5 M, 24 hours",244.8 μm
same,"Neurites length per field, % Vehicle","10^−6 M, 6 hours",96%
same,"Neurites length per field, Mean","10^−6 M, 6 hours",97.7 μm
same,"Neurites length per field, % Vehicle","10^−6 M, 12 hours",96%
same,"Neurites length per field, Mean","10^−6 M, 12 hours",287.0 μm
same,"Neurites length per field, % Vehicle","10^−6 M, 24 hours",86%
same,"Neurites length per field, Mean","10^−6 M, 24 hours",189.9 μm
same,"Neurites length per field, % Vehicle","10^−7 M, 6 hours",149%
same,"Neurites length per field, Mean","10^−7 M, 6 hours",151.8 μm
same,"Neurites length per field, % Vehicle","10^−7 M, 6 hours, listed as 7β-OH EPIA",171%
same,"Neurites length per field, % Vehicle","10^−7 M, 12 hours",134%
same,"Neurites length per field, Mean","10^−7 M, 12 hours",398.4 μm
same,"Neurites length per field, % Vehicle","10^−7 M, 24 hours",173%
same,"Neurites length per field, Mean","10^−7 M, 24 hours",380.8 μm
same,"Neurites length per field, % Vehicle","10^−8 M, 6 hours",176%
same,"Neurites length per field, Mean","10^−8 M, 6 hours",179.3 μm
same,"Neurites length per field, % Vehicle","10^−8 M, 12 hours",123%
same,"Neurites length per field, Mean","10^−8 M, 12 hours",368.3 μm
same,"Neurites length per field, % Vehicle","10^−8 M, 24 hours",174%
same,"Neurites length per field, Mean","10^−8 M, 24 hours",384.3 μm
same,"Neurites length per field, % Vehicle","10^−9 M, 6 hours",171%
same,"Neurites length per field, Mean","10^−9 M, 6 hours",174.2 μm
same,"Neurites length per field, % Vehicle","10^−9 M, 6 hours, listed as 7β-OH EPIA",149%
same,"Neurites length per field, % Vehicle","10^−9 M, 12 hours",145%
same,"Neurites length per field, Mean","10^−9 M, 12 hours",431.8 μm
same,"Neurites length per field, % Vehicle","10^−9 M, 24 hours",147%
same,"Neurites length per field, Mean","10^−9 M, 24 hours",324.9 μm
